# Measurements: US6001853A, “Hydroxylamine compositions for the prevention or retardation of cataracts” (priority 1998, dated 1999)
# Read-outs that look alike come from different tables or passages of the source.
# What was measured:
# rat lenses [1] = assay type: cell-based; settings: 1.0 mM H2O2 plus 4 mM TEMPOL-H, 24 hours
# Method: Lenses were cultured as in the above examples.
# cells = settings: reported by Mitchell and colleagues; cited from earlier work
# [2] = Systemic delivery of TEMPOL-H by osmotic pump, plasma and eye concentrations; assay type: in vivo, Sprague Dawley albino rats; settings: subcutaneous osmotic pump, 2 ml of 100 mM over 7 or 14 days
# Method: (§1) A 2 ml volume of 100 mM TEMPOL-H was provided in an ALZET osmotic pump, available from Alza Corporation of Palo Alto, Calif. The pump was programmed to deliver the 2 ml dose continuously (down an osmotic gradient) over a period of either 7 or 14 days.
# In the rats who received subcutaneous delivery of the hydroxylamine, plasma TEMPOL-H concentrations of 0.25 μM were observed.
# lens = test: Lens penetration and redox state by EPR of lens homogenate; assay type: in vitro ADME, rat
# From the text: TEMPOL-H is the reduced form of the nitroxide TEMPOL, which is a stable free radical detectable by electron paramagnetic resonance (EPR) spectroscopy, as in reference 12. TEMPOL-H can be readily converted to TEMPOL by oxidation with ferricyanide, and then can be quantitated by EPR spectroscopy. This provides a ready means of determining whether TEMPOL-H is present in experimental lenses and whether it is in the oxidized or reduced state. […] TEMPOL-H can in turn be oxidized to the nitroxide by dehydrogenases and activated oxygen species, such as singlet oxygen.
# (§2) Rat lenses were cultured as described in reference 11 and Example 1. H2 O2 was added to experimental cultures to a concentration of 0.25 mM. Carnosine at 1 mM, MPG at 1 mM, or TEMPOL-H at 5 mM was added to some of the treated lenses at the beginning of the culture assay.
# Following lens incubation, lenses were rinsed, then homogenized in buffer and aliquots of the homogenate analyzed by EPR. […] Only following treatment of the lens extract with ferricyanide was the nitroxide detected.
# rat lenses [3] = test: Tritiated choline accumulation by cultured rat lenses (H2O2 stress); assay type: cell-based, Sprague-Dawley rat; settings: for reduction of the H2O2-induced decrement of tritiated choline concentration: 0.25 mM H2O2, MPG 1 mM, TEMPOL-H 5 mM
# Method: (§3) Such assays are accepted as an indication of the in vivo effect of a drug in retarding the development of cataracts.
# (§4) The techniques described in references 10 and 11 were used in this assay. Rat lenses used in these studies were obtained from Sprague-Dawley male rats. The lenses were incubated in 24-well clusters in modified TC-199 medium (prepared as described in Zigler and Hess, Exp. Eye Res. 41:67, 1985) and placed in a 37° C. incubator with a 95% air/5% CO2 humidified atmosphere. The lenses were incubated in about 2.0 ml of culture medium, which was adjusted to about 300 milliosmoles. The assays were usually of 22 hours duration, and tracer levels of ^86 Rb or tritiated choline were added at 18 hours so that the tracer was present during the last four hours of the assay.
# as §2
# (§5) The experiment was performed essentially as described for Example 2, except that TEMPOL-H was added at 3 or 4 mM or was added at 3 mM together with MPG at either 0.5 or 1 mM.
# rat lenses [4] = test: Rubidium-86 accumulation by cultured rat lenses (H2O2 stress); assay type: cell-based, Sprague-Dawley rat; settings: for prevention of decrement in Rb-86 accumulation associated with H2O2 exposure: 0.25 mM H2O2, agent added at beginning of assay; for effect on Rb-86 accumulation of control lenses: added to medium of control lenses at beginning of assay, no H2O2
# Method: as §3, §4
# Two potential anti-cataract agents were tested in this experiment: E-64 (a protease inhibitor) and pantetheine (a putative phase separation inhibitor) were added to the culture medium at the beginning of the assay.
# as §5
# experimental cataracts = settings: cited from earlier work
# lens proteins = settings: in vitro; cited from earlier work
# [5] = test system: cataracts in x-ray irradiated rats; settings: cited from earlier work
# [6] = Systemic/ocular delivery of MPG by osmotic pump, detection in the eye; assay type: in vivo, Sprague Dawley albino rats; settings: subcutaneous, intraperitoneal and ocular routes; 2 ml of 100 mM over 7 or 14 days
# Method: as §1
# The reducing agent MPG was also delivered to the subjects by subcutaneous, intraperitoneal and ocular routes, as described in Example 7, through an implanted osmotic pump. A 2 ml volume of 100 mM MPG was provided in the pump and delivered over a period of 7 days or 14 days.
structure (smiles),measurement,setting,value
CC1(C)CC(O)CC(C)(C)N1O [TEMPOL-H],inhibition of opacification of cultured lenses,rat lenses [1],clearly and consistently was found to inhibit opacification of the cultured lenses
same,protection of cells from oxidative damage,cells,affords no such protection
same,concentration,[2]; read-out: concentration in the eye,20 nM
same,concentration,[2]; read-out: plasma TEMPOL-H concentration,250 nM
same,penetration of the lens from the culture medium,"lens; EPR after lens incubation, TEMPOL-H 5 mM",does penetrate the lens from the culture medium
same,redox state within the lens,lens; nitroxide detected only following ferricyanide treatment of lens extract,the highly reducing environment within the lens keeps the compound in the reduced state
same,reduction of the H2O2-induced decrement of tritiated choline concentration,rat lenses [3],significant reduction in the decrement of tritiated choline concentration
same,"effect on 3H-choline accumulation in lenses exposed to H2O2, dose response / combination","rat lenses [3]; TEMPOL-H 3 or 4 mM, or 3 mM with MPG 0.5 or 1 mM (FIG. 5)",dose response effect
same,"effect on Rb-86 accumulation in lenses exposed to H2O2, dose response / combination","rat lenses [4]; TEMPOL-H 3 or 4 mM, or 3 mM with MPG 0.5 or 1 mM (FIG. 6)",dose response effect
CC(C)Cc1ccc(C(C)C(=O)O)cc1 (stereo not shown) [ibuprofen],delay of experimental cataracts,experimental cataracts,shown to delay experimental cataracts
CC(=O)Oc1ccccc1C(=O)O [Aspirin],delay of experimental cataracts,experimental cataracts,shown to delay experimental cataracts
CC(=O)Nc1ccc(O)cc1 [acetaminophen],delay of experimental cataracts,experimental cataracts,shown to delay experimental cataracts
CC(C)CC(NC(=O)C1OC1C(=O)O)C(=O)NCCCCNC(=N)N (stereo not shown) [E-64],prevention of decrement in Rb-86 accumulation associated with H2O2 exposure,rat lenses [4],neither prevented the decrement in accumulation
same,effect on Rb-86 accumulation of control lenses,rat lenses [4],small negative effect on Rb-86 accumulation
O=C(O)COc1nn(Cc2ccccc2)c2ccccc12 [Bendazac],protection of lens proteins,lens proteins,found to protect lens proteins in vitro
same,delay of onset of cataracts,[5],delay the onset of cataracts in x-ray irradiated rats
CC(C)(CO)[C@@H](O)C(=O)NCCC(=O)NCCS [pantetheine],prevention of decrement in Rb-86 accumulation associated with H2O2 exposure,rat lenses [4],neither prevented the decrement in accumulation
same,effect on Rb-86 accumulation of control lenses,rat lenses [4],small negative effect on Rb-86 accumulation
"CC1(C)CC(O)CC(C)(C)N1[O] [TEMPOL, 4-hydroxy-2,2,6,6-tetramethylpiperidin-1-yloxy]",protection of cells from oxidative damage,cells,protects cells from oxidative damage
"OO [H2 O2, hydrogen peroxide]",Rb-86 accumulation (internal concentration relative to concentration in the medium),"rat lenses [4]; H2O2 bolus 0.25 mM, normal control lenses more than 7-fold",5 fold
"CC(S)C(=O)NCC(=O)O (stereo not shown) [MPG, N-(2-mercaptopropionyl) glycine]",detection of MPG in the eye,[6],detected in the eye
same,reduction of the H2O2-induced decrement of tritiated choline concentration,rat lenses [3],significant reduction in the decrement of tritiated choline concentration
